Measurements taken from PubChem BioAssay (NCI).
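Test compounds were applied to cells in 96-well plates for 48 hours at 5 doses. Definition used: TGI = concentration required for complete inhibition of growth.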

Tests used:
Assay in all cases: NCI-60 cell line screen, 48 h
[1] = system: 786-0 renal
[2] = system: NCI-H460 lung
[3] = system: MOLT-4 leukemia
[4] = system: NCI-H522 lung
[5] = system: HOP-62 NSCLC
[6] = system: RXF 393 renal
[7] = system: SR leukemia
[8] = system: HCC-2998 colon
[9] = system: SK-MEL-28 melanoma
[10] = system: MALME-3M melanoma
[11] = system: SW-620 colon
[12] = system: U251 CNS
[13] = system: TK-10 renal
[14] = system: HS 578T breast
[15] = system: SK-OV-3 ovarian
[16] = system: HT29 colon
[17] = system: BT-549 breast
[18] = system: HL-60(TB) leukemia
[19] = system: SNB-75 CNS
[20] = system: CAKI-1 renal
[21] = system: MDA-MB-435
[22] = system: T-47D breast
[23] = system: MCF7 breast
[24] = system: OVCAR-5 ovarian
[25] = system: OVCAR-3 ovarian
[26] = system: MDA-MB-231 breast
[27] = system: RPMI-8226 leukemia
[28] = system: OVCAR-4 ovarian
[29] = system: SF-268 CNS
[30] = system: K-562 leukemia
[31] = system: M14 melanoma
[32] = system: SNB-19 CNS
[33] = system: NCI/ADR-RES ovarian
[34] = system: SK-MEL-5 melanoma
[35] = system: SF-539 CNS
[36] = system: HCT-116 colon
[37] = system: ACHN renal
[38] = system: EKVX NSCLC
[39] = system: UO-31 renal
[40] = system: LOX IMVI melanoma
[41] = system: HOP-92 NSCLC
[42] = system: MDA-N
[43] = system: OVCAR-8 ovarian
[44] = system: IGROV1 ovarian
[45] = system: UACC-62 melanoma
[46] = system: SF-295 CNS
[47] = system: HCT-15 colon
[48] = system: NCI-H23 lung
[49] = system: DU-145 prostate
[50] = system: NCI-H226 lung
[51] = system: PC-3 prostate
[52] = system: A549 NSCLC
[53] = system: COLO 205 colon
[54] = system: KM12 colon
[55] = system: SN12C renal
[56] = system: UACC-257 melanoma
[57] = system: CCRF-CEM leukemia
[58] = system: SK-MEL-2 melanoma
[59] = system: A498 renal

Measured: TGI

COc1ccc(-c2cc(-c3ccccc3)n(C3OC(COC(C)=O)C(OC(C)=O)C(OC(C)=O)C3OC(C)=O)c(=S)c2C#N)cc1 (stereo unspecified)
12.4 µM: [1]
47.7 µM: [48]
23.1 µM: [32] | [50]
29.2 µM: [24]
14.4 µM: [5] | [35]
15.5 µM: [41]
32 µM: [44]
19 µM: [20]
23.2 µM: [6] | [10]
40.7 µM: [13]
29.7 µM: [37]
25.1 µM: [9]
32.3 µM: [51]
31.9 µM: [38]
21.3 µM: [39]
17.9 µM: [46]
19.4 µM: [21] | [34]
39.3 µM: [52]
50.5 µM: [33]
23.5 µM: [14] | [25]
16.7 µM: [27]
18.5 µM: [4]
23.9 µM: [49]
34.9 µM: [17]
18.7 µM: [12] | [16]
> 100 µM: [3] | [8] | [11] | [23] | [30] | [40] | [47]
44.7 µM: [54]
16.4 µM: [26] | [45]
19.7 µM: [43]
13.4 µM: [18]
20.5 µM: [31]
37.5 µM: [7]
8.06 µM: [28]
22.2 µM: [2]
25.5 µM: [42]
19.2 µM: [19] | [36]
58.2 µM: [29]
25.7 µM: [22]
32.9 µM: [15]
23.4 µM: [53]

NS(=O)(=O)c1ccc(NNC(=O)c2cccc3c(=O)c4ccccc4[nH]c23)cc1
89 µM: [40]
not listed: [59]
> 100 µM: all other assays above

COc1ccc2c(c1)/C(=C(\C(Cl)=C(\Cl)N1CCCCC1)[N+](=O)[O-])N2
not listed: [27] | [35] | [58]
> 100 µM: all other assays above

Cc1ccnc(NS(=O)(=O)c2ccc(NC(=O)c3ccc4nc5ccccc5c(Nc5ccc(S(=O)(=O)Nc6nccc(C)n6)cc5)c4c3)cc2)n1
51.2 µM: [6]
95.6 µM: [25]
32.6 µM: [17]
55.6 µM: [7]
55.4 µM: [41]
39.5 µM: [58]
87.4 µM: [4]
41.7 µM: [12]
75.1 µM: [23]
not listed: [59]
> 100 µM: all other assays above
